Assay results reported in patent US20260124192A1, “COMPOUNDS, COMPOSITIONS, AND METHODS OF TREATING RNA VIRAL INFECTIONS” (priority 2024, published 2026).

What was measured:
[1] = system: 13 viruses and variants; experiment: organism not typed; type: cell-based; conditions: read-out: antiviral activity (best EC50 per virus/strain/variant)
[2] = system: CoV229E; experiment: Anti-Coronavirus 229E cytoprotection (CPE) assay, MRC-5 (Method 3); type: cell-based, human Coronavirus 229E; conditions: Human coronavirus 229E, MRC5, […], read-out: CoV229E - EC50 (μM)
[3] = system: SARS-CoV-2 Alpha (B.1.1.7); experiment: SARS-CoV-2 IF assay, HeLa-ACE2 (Method 1); type: cell-based; conditions: 2% FBS
[4] = in vitro; conditions: dog, CC50 (μM), MDCK; with Influenza B CPE assays
[5] = system: SARS-CoV-2 USA-WA1/2020; experiment: SARS-CoV-2 CPE assay, Vero 76 (Method 2); type: cell-based; conditions: Severe acute respiratory syndrome coronavirus 2, 2% FBS
[6] = in vitro; conditions: human, CC50 (μM), A549-ACE2; with CPE assays (SARS-CoV-2 WA1, Delta, OC43); not converted for FBS
[7] = system: SARS-CoV-2 USA-WA1/2020; experiment: SARS-CoV-2 viral yield reduction (VYR) assay, Caco-2 (Method 2); type: cell-based; conditions: Severe acute respiratory syndrome coronavirus 2, 2% FBS
Source text: The antiviral assays were cell line based and consisted in transfecting each of the viruses tested in a compatible cell line. Upon infection and after drug treatment, viral survival and cell toxicity were reported from the readout of three different assays: cytopathic effect (CPE), viral yield reduction (VYR), or immunofluorescence (IF).
After sufficient virus replication occurs (3 days for SARS-CoV-2), a sample of supernatant is taken from each infected well (three replicate wells are pooled) and tested immediately or held frozen at −80° C. for later virus titer determination. After maximum CPE is observed, the viable plates are stained with neutral red dye. The incorporated dye content is quantified as described above to generate the EC50 and CC50 values.
Serial 1/10 dilutions of virus are made and plated into 4 replicate wells containing fresh cell monolayers of Vero E6 cells. Plates are then incubated, and cells are scored for presence or absence of virus after distinct CPE is observed, and the CCID50 calculated using the Reed-Muench method (24). […] Dividing EC90 by the CC50 gives the SI value for this test.

[8] = Cytotoxicity, neutral red, Vero E6; type: cell-based; conditions: African green monkey, Vero E6 cells (uninfected toxicity wells), with CPE assay, not converted for FBS
Method: Confluent or near-confluent cell culture monolayers of Vero E6 cells are prepared in 96-well disposable microplates the day before testing. Cells are maintained in MEM supplemented with 5% FBS. For antiviral assays the same medium is used but with FBS reduced to 2% and supplemented with 50-μg/ml gentamicin. Compounds are dissolved in DMSO, saline or the diluent requested by the submitter. […] The test compound is prepared at four serial log 10 concentrations, usually 0.1, 1.0, 10, and 100 μg/ml or μM (per sponsor preference). Lower concentrations are used when insufficient compound is supplied. Five microwells are used per dilution: three for infected cultures and two for uninfected toxicity cultures. Controls for the experiment consist of six microwells that are infected and not treated (virus controls) and six that are untreated and uninfected (cell controls) on every plate. A known active drug is tested in parallel as a positive control drug using the same method as is applied for test compounds. The positive control is tested with every test run.
Growth media is removed from the cells and the test compound is applied in 0.1 ml volume to wells at 2× concentration. Virus, normally at ˜60 CCID50 (50% cell culture infectious dose) in 0.1 ml volume is added to the wells designated for virus infection. […] The dye content in each well is quantified using a spectrophotometer at 540 nm wavelength. […]

[9] = system: Influenza A H1N1/WSN/33; experiment: Influenza A virus IF assay, A549 (Method 7)
Method: A549 cells were infected with each viral strain at MOI 0.05. After 24 h post-infection with A/WSN/33 cells were fixed with 4% formaldehyde for 30 min. Cells were briefly washed with PBS, then permeabilized with 0.1% Triton X-100 in PBS for 15 minutes. Blocking occurred at room temperature for 1 hour with 0.5% BSA in PBS followed by incubation with the NP antibody (HT103, a gift from Thomas Moran) in 0.5% BSA in PBS for 1 hour at room temperature. Cells were washed with PBS 2× and incubated with a fluorescently-labeled secondary antibody, alexa-fluor-488 (Invitrogen), in 0.5% BSA in PBS with DAPI for 45 min at room temperature. Two washes with PBS were performed before imaging the cells on a Celigo Image Cytometer. Infected cells (488 nm) and total cells (DAPI) were quantified using the Celigo (Nexcelcom) imaging cytometer. Infectivity was measured by the accumulation of viral NP protein (fluorescence accumulation). Percent infection was quantified as ((Infected cells/Total cells)−Background)*100 and the DMSO control was then set to 100% infection for analysis. Data was fit using nonlinear regression and IC50s for each experiment were determined using GraphPad Prism version 8.0.2 (San Diego, CA). Cytotoxicity was also performed using the MTT assay (Roche), according to the manufacturer's instructions. […]

[10] = in vitro; conditions: human
[11] = system: SARS-CoV-2 USA-WA1/2020; experiment: SARS-CoV-2 CPE assay, A549-ACE2 (Method 2); type: cell-based; conditions: 2% FBS
[12] = system: A549-ACE2 cells; conditions: with CPE assays (SARS-CoV-2 WA1, Delta, OC43), not converted for FBS
[13] = system: SARS-CoV-2 Delta (B.1.617.2); experiment: SARS-CoV-2 IF assay, HeLa-ACE2 (Method 1); type: cell-based; conditions: 2% FBS
[14] = Cytotoxicity, XTT, MRC-5; conditions: human
[15] = in vitro; conditions: African green monkey, CC50 (μM), Vero 76; with CPE assays (SARS-CoV-2 WA1, Delta); not converted for FBS
[16] = system: MRC-5 cells; conditions: human, 6 days
[17] = system: FBS; experiment: Protein binding by rapid equilibrium dialysis (RED) in FBS; conditions: 1 μM, n = 3

Structure (SMILES): Cc1c(-c2ccc(O)cc2)n(Cc2ccc(OCCN3CCCCC3)cc2)c2ccc(O)cc12 [Pipendoxifene]
- EC50 [1]: < 10000 nM
- EC50 [2]: 0.11 to 0.52 µM
- EC50 ([3]; SARS-CoV-2 Alpha (B.1.1.7)): 1200 nM
- EC50 ([3]; Severe acute respiratory syndrome coronavirus 2, HeLa-ACE2, SARS-CoV-2 Alpha (B.1.1.7)): 830 nM
- CC50 [4]: 9.8 µM
- EC50 [5]: 2600 nM
- CC50 [6]: > 10 µM
- EC50 [7]: 540 nM
- CC50 [8]: 3200 nM
- EC50 [9]: 7490 nM
- CC50 [10]: 1000 nM
- EC50 [11]: 1900 nM
- CC50 [12]: > 15000 nM
- EC50 ([13]; SARS-CoV-2 Delta (B.1.617.2)): 677 nM
- EC50 ([13]; Severe acute respiratory syndrome coronavirus 2, HeLa-ACE2, SARS-CoV-2 Delta (B.1.617.2)): 740 nM
- CC50 at 6 days [14]: > 1000 nM
- CC50 [15]: 2.9 µM
- CC50 [16]: > 1000 nM
- Mean unbound (Fub, %) ([17]; 2% heat inactivated FBS): 25.0%
- Mean unbound (Fub, %) ([17]; 10% heat inactivated FBS): 5.0%
- Mean unbound (Fub, %) ([17]; 10% not inactivated FBS): 4.7%
